Measurements from patent publication US8889704B2 (Array BioPharma Inc., priority 2011, dated 2014).
Counter-ions that a name gives are not always drawn.

Experiments:
Type in all cases: biochemical
[1] = target: PIM-1 (Homo sapiens, UniProt P11309); assay: Enzyme PIM-1 Assay ([33P]ATP incorporation into PIM2tide, filter plate); settings: averaged IC50; 35 μM ATP, 7.5 μM PIM2tide, 0.25 nM PIM-1, 60 min at 22° C.
Outline: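 Radiometric assay: 0.25 nM PIM-1 phosphorylates 7.5 μM PIM2tide with 35 μM [γ-33P]ATP in 20 mM MOPS pH 7.4, 10 mM MgCl2, 1 mM DTT, 0.005% Tween-20, 60 min at 22 °C. Product captured on P81 filters, scintillation counted; 10-point 3-fold curve from 10 μM top, 2% DMSO, IC50 by 4-parameter logistic fit of POC.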

[2] = target: T1, GST-tagged recombinant full-length human Pim-2 (Homo sapiens, UniProt Q9P1W9); assay: PIM-2 Assay (as Example A); settings: averaged IC50; 4 μM ATP, 1.0 μM PIM2tide, 1.5 nM Pim-2
T1 construct: GST-tagged recombinant full-length human Pim-2; GST
Outline: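 Radiometric filter-binding assay: GST-tagged full-length human Pim-2 (1.5 nM) phosphorylates 1.0 μM PIM2tide with 4 μM [γ-33P]ATP for 60 min at 22 °C in pH 7.4 MOPS buffer, 2% DMSO. 10-point 3-fold dilutions from 10 μM top dose; IC50 from 4-parameter fit of percent of control.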

[3] = target: recombinant rat PIM-3 (Rattus norvegicus, UniProt O70444); assay: PIM-3 Assay (as Example A); settings: averaged IC50; 30 μM ATP, 3.75 μM PIM2tide, 0.5 nM PIM-3
Outline: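 Recombinant rat PIM-3 (0.5 nM) with 3.75 μM PIM2tide and 30 μM [γ-33P]ATP in MOPS pH 7.4 buffer, 60 min at 22 °C; labelled peptide captured on phosphocellulose filters and counted by scintillation. 10-point curve (top dose 10 μM, 2% DMSO); IC50 from 4-parameter fit of percent of control.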

T1 sequence (Q9P1W9 whole entry): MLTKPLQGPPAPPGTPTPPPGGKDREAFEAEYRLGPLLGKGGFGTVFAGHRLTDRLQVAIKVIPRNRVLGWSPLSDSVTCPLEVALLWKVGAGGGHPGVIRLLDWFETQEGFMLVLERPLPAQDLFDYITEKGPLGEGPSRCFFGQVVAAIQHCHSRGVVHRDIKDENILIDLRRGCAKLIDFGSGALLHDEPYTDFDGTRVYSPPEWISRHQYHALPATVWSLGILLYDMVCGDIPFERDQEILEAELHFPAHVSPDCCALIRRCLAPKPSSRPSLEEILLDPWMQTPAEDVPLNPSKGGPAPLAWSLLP
PIM-1, sequence (P11309 whole entry, species assumed): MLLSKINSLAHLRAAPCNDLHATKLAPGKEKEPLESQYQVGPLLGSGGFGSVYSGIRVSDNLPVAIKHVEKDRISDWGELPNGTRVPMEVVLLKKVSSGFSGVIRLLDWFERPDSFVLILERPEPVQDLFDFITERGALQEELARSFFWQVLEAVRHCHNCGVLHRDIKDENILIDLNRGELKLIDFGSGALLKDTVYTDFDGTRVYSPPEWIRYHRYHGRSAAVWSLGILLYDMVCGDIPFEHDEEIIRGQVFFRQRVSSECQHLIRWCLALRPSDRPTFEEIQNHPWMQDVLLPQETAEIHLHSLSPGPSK

SMILES | IC50 [1] | IC50 [2] | IC50 [3]
CC(C)Oc1ccc2ccc(-c3nnc4ccc([C@@H](N5CC[C@H](N)C5)C(F)(F)F)cn34)nc2c1 [Example 142, (S)-1-((R)-2,2,2-trifluoro-1-(3-(7-isopropoxyquinolin-2-yl)-[1,2,4]triazolo[4,3-a]pyridin-6-yl)ethyl)pyrrolidin-3-amine dihydrochloride] | 0.09 nM | 44 nM | 0.5 nM
CC(C)NC(=O)c1ccc2ccc(-c3nnc4ccc(C(N5CC[C@H](N)C5)C(F)(F)F)cn34)nc2c1 (stereo partly drawn) [Example 30, 2-(6-(1-((S)-3-aminopyrrolidin-1-yl)-2,2,2-trifluoroethyl)-[1,2,4]triazolo[4,3-a]pyridin-3-yl)-N-isopropylquinoline-7-carboxamide dihydrochloride] | 0.32 nM | 63 nM | 0.9 nM
COc1cccc2ccc(-c3nnc4ccc(C(N5CC[C@H](O)C5)C(F)(F)F)cn34)nc12 (stereo partly drawn) [Example 7, (3S)-1-(2,2,2-trifluoro-1-(3-(8-methoxyquinolin-2-yl)-[1,2,4]triazolo[4,3-a]pyridin-6-yl)ethyl)pyrrolidin-3-ol] | 3.94 nM | > 1000 nM | 45 nM
COCCc1ccc2ccc(-c3nnc4ccc([C@H](N5CC[C@](C)(N)C5)C(F)(F)F)cn34)nc2c1 [Example 300, (S)-3-methyl-1-((S)-2,2,2-trifluoro-1-(3-(7-(2-methoxyethyl)quinolin-2-yl)-[1,2,4]triazolo[4,3-a]pyridin-6-yl)ethyl)pyrrolidin-3-amine dihydrochloride] | 0.36 nM | 64 nM | 0.4 nM
CC(C)Oc1cccc2ccc(-c3nnc4ccc(C(N5C[C@@H](O)[C@H](O)C5)C(F)(F)F)cn34)nc12 (single isomer, unassigned) [Example 82] | 1.12 nM | > 100 nM | 30 nM
COC[C@@H](C)Oc1cc(F)cc2ccc(-c3nnc4ccc([C@H](N5CC[C@](C)(N)C5)C(F)(F)F)cn34)nc12 [Example 221, (S)-3-methyl-1-((S)-2,2,2-trifluoro-1-(3-(6-fluoro-8-((R)-1-methoxypropan-2-yloxy)quinolin-2-yl)-[1,2,4]triazolo[4,3-a]pyridin-6-yl)ethyl)pyrrolidin-3-amine dihydrochloride] | 0.41 nM | 128 nM | 1 nM
NC[C@H]1CCN(C(c2ccc3nnc(-c4ccc5cccc(OCC6CC6)c5n4)n3c2)C(F)(F)F)C1 (stereo partly drawn) [Example 21, ((3R)-1-(1-(3-(8-(cyclopropylmethoxy)quinolin-2-yl)-[1,2,4]triazolo[4,3-a]pyridin-6-yl)-2,2,2-trifluoroethyl)pyrrolidin-3-yl)methanamine dihydrochloride] | 1.14 nM | 427 nM | 46 nM
FC(F)(F)[C@@H](c1ccc2nnc(-c3ccc4ccc(Cl)cc4n3)n2c1)N1C[C@@H]2C[C@H]1CN2 [Example 64, 2-(6-((R)-1-((1S,4S)-2,5-diazabicyclo[2.2.1]heptan-2-yl)-2,2,2-trifluoroethyl)-[1,2,4]triazolo[4,3-a]pyridin-3-yl)-7-chloro quinoline dihydrochloride] | 9.33 nM | > 100 nM | 14 nM
N#Cc1cccc2ccc(-c3nnc4ccc([C@@H](N5CC[C@H](N)C5)C(F)(F)F)cn34)nc12 [Example 88, 2-(6-((R)-1-((S)-3-aminopyrrolidin-1-yl)-2,2,2-trifluoroethyl)-[1,2,4]triazolo[4,3-a]pyridin-3-yl)quinoline-8-carbonitrile dihydrochloride] | 3.26 nM | > 100 nM | 18 nM
CCOc1cc2nc(-c3nnc4ccc([C@@H](N5CC[C@H](CN)C5)C(F)(F)F)cn34)ccc2cc1F [Example 280, ((R)-1-((R)-1-(3-(7-ethoxy-6-fluoroquinolin-2-yl)-[1,2,4]triazolo[4,3-a]pyridin-6-yl)-2,2,2-trifluoroethyl)pyrrolidin-3-yl)methanamine hydrochloride] | 0.62 nM | 418 nM | 2.5 nM
CC(C)Oc1cc(F)cc2ccc(-c3nnc4ccc([C@@H](N5C[C@@H](N)[C@@H](O)C5)C(F)(F)F)cn34)nc12 [Example 132, (3S,4R)-4-amino-1-((R)-2,2,2-trifluoro-1-(3-(6-fluoro-8-isopropoxyquinolin-2-yl)-[1,2,4]triazolo[4,3-a]pyridin-6-yl)ethyl)pyrrolidin-3-ol dihydrochloride] | 4.42 nM | 538 nM | 16 nM
CC1Cc2c(ccc3ccc(-c4nnc5ccc([C@@H](N6CC[C@H](N)C6)C(F)(F)F)cn45)nc23)O1 (stereo partly drawn) [Example 144, (3S)-1-((1R)-2,2,2-trifluoro-1-(3-(8-methyl-8,9-dihydrofuro[2,3-h]quinolin-2-yl)-[1,2,4]triazolo[4,3-a]pyridin-6-yl)ethyl)pyrrolidin-3-amine dihydrochloride] | 0.95 nM | 48 nM | 1 nM
N[C@H]1CCN([C@H](c2ccc3nnc(-c4ccc5cccc(OC(F)(F)F)c5n4)n3c2)C(F)(F)F)C1 [Example 40, (S)-1-((R)-2,2,2-trifluoro-1-(3-(8-(trifluoromethoxy)quinolin-2-yl)-[1,2,4]triazolo[4,3-a]pyridin-6-yl)ethyl)pyrrolidin-3-amine dihydrochloride] | 0.21 nM | 78 nM | 4.7 nM
N[C@H]1CCN([C@H](c2ccc3nnc(-c4ccc5ccc(F)c(C6CC6)c5n4)n3c2)C(F)(F)F)C1 [Example 60, (S)-1-((R)-1-(3-(8-cyclopropyl-7-fluoroquinolin-2-yl)-[1,2,4]triazolo[4,3-a]pyridin-6-yl)-2,2,2-trifluoroethyl)pyrrolidin-3-amine dihydrochloride] | 0.19 nM | 77 nM | 4 nM
CC(C)Oc1cccc2ccc(-c3nnc4ccc([C@@H](N5CCC(N)(CO)C5)C(F)(F)F)cn34)nc12 (stereo partly drawn) [Example 197, (3-amino-1-((R)-2,2,2-trifluoro-1-(3-(8-isopropoxyquinolin-2-yl)-[1,2,4]triazolo[4,3-a]pyridin-6-yl)ethyl)pyrrolidin-3-yl)methanol dihydrochloride] | 0.3 nM | 150 nM | 0.9 nM
CCOc1ccc2ccc(-c3nnc4ccc([C@@H](N5CC[C@H](N)C5)C(F)(F)F)cn34)nc2c1 [Example 255, (S)-1-((R)-1-(3-(7-ethoxyquinolin-2-yl)-[1,2,4]triazolo[4,3-a]pyridin-6-yl)-2,2,2-trifluoroethyl)pyrrolidin-3-amine dihydrochloride] | 0.24 nM | 284 nM | 0.6 nM
C[C@]1(N)CCN([C@@H](c2ccc3nnc(-c4ccc5ccc(C6CC6)cc5n4)n3c2)C(F)(F)F)C1 [Example 223, (S)-1-((S)-1-(3-(7-cyclopropylquinolin-2-yl)-[1,2,4]triazolo[4,3-a]pyridin-6-yl)-2,2,2-trifluoroethyl)-3-methylpyrrolidin-3-amine dihydrochloride] | 0.29 nM | 62 nM | 0.3 nM
CCOc1cc2nc(-c3nnc4ccc([C@@H](C)N5CC[C@H](N)C5)cn34)ccc2cc1F [Example 309, (S)-1-((R)-1-(3-(7-ethoxy-6-fluoroquinolin-2-yl)-[1,2,4]triazolo[4,3-a]pyridin-6-yl)ethyl)pyrrolidin-3-amine trihydrochloride] | 1.18 nM | 407 nM | 3 nM
COc1cccc2ccc(-c3nnc4ccc([C@@H](N5CCC(C)(O)C5)C(F)(F)F)cn34)nc12 (single isomer, unassigned; diastereomer 1) [Example 193, hydrochloride] | 13 nM | > 1000 nM | 67 nM
